Assay results reported in the NIST ThermoML archive (doi:10.1016/j.tca.2014.06.031).

Columns and labels:
[1] = xn = mol fraction of the nth substance listed; details: 101 kPa, Liquid; for speed of sound: Frequency=3 MHz, Sing-around technique in a fixed-path interferometer; for mass density: Vibrating tube method
[2] = refractive index (Na D-line) (dimensionless); xn = mol fraction of the nth substance listed; details: 101 kPa, Liquid, Standard Abbe refractometry

CCCCC(=O)O [pentanoic acid] + CCCC(=O)O
Details	mass density, [1] [kg/m3]	refractive index, [2]	speed of sound, [1] [m/s]
293.15 K, x2 = 0	939.41	1.4084	1234
293.15 K, x2 = 0.0472	940.14	1.40813	1232.3
293.15 K, x2 = 0.0938	940.86	1.4077	1230.6
293.15 K, x2 = 0.1944	942.46	1.40676	1226.9
293.15 K, x2 = 0.2928	944.08	1.40581	1223.3
293.15 K, x2 = 0.3946	945.82	1.40481	1219.5
293.15 K, x2 = 0.4922	947.56	1.40383	1215.8
293.15 K, x2 = 0.5938	949.45	1.40278	1211.9
293.15 K, x2 = 0.6929	951.38	1.40174	1208
293.15 K, x2 = 0.7973	953.48	1.4006	1203.8
293.15 K, x2 = 0.895	955.52	1.39949	1199.9
298.15 K, x2 = 0	934.85	1.40641	1216
298.15 K, x2 = 0.0472	935.55	1.40607	1214.3
298.15 K, x2 = 0.0938	936.26	1.40563	1212.6
298.15 K, x2 = 0.1944	937.82	1.40469	1208.9
298.15 K, x2 = 0.2928	939.4	1.40374	1205.2
298.15 K, x2 = 0.3946	941.11	1.40274	1201.4
298.15 K, x2 = 0.4922	942.81	1.40175	1197.6
298.15 K, x2 = 0.5938	944.66	1.4007	1193.6
298.15 K, x2 = 0.6929	946.54	1.39965	1189.7
298.15 K, x2 = 0.7973	948.6	1.3985	1185.4
298.15 K, x2 = 0.895	950.6	1.39744	1181.4
303.15 K, x2 = 0	930.29	1.40438	1197.9
303.15 K, x2 = 0.0472	930.96	1.40399	1196.2
303.15 K, x2 = 0.0938	931.65	1.40355	1194.5
303.15 K, x2 = 0.1944	933.18	1.4026	1190.7
303.15 K, x2 = 0.2928	934.73	1.40164	1187
303.15 K, x2 = 0.3946	936.39	1.40063	1183.1
303.15 K, x2 = 0.4922	938.05	1.39964	1179.3
303.15 K, x2 = 0.5938	939.87	1.39857	1175.2
303.15 K, x2 = 0.6929	941.71	1.39751	1171.2
303.15 K, x2 = 0.7973	943.73	1.39639	1166.9
303.15 K, x2 = 0.895	945.68	1.39533	1162.8
308.15 K, x2 = 0	925.73	1.40234	1179.9
308.15 K, x2 = 0.0472	926.37	1.4019	1178.2
308.15 K, x2 = 0.0938	927.04	1.40146	1176.5
308.15 K, x2 = 0.1944	928.53	1.40051	1172.7
308.15 K, x2 = 0.2928	930.05	1.39955	1168.9
308.15 K, x2 = 0.3946	931.68	1.39853	1164.9
308.15 K, x2 = 0.4922	933.3	1.39753	1161
308.15 K, x2 = 0.5938	935.08	1.39646	1156.9
308.15 K, x2 = 0.6929	936.87	1.39541	1152.9
308.15 K, x2 = 0.7973	938.85	1.39431	1148.5
308.15 K, x2 = 0.895	940.76	1.39326	1144.3
313.15 K, x2 = 0	921.16	1.4003	1162.1
313.15 K, x2 = 0.0472	921.78	1.39983	1160.4
313.15 K, x2 = 0.0938	922.44	1.39937	1158.6
313.15 K, x2 = 0.1944	923.89	1.39841	1154.8
313.15 K, x2 = 0.2928	925.37	1.39745	1151
313.15 K, x2 = 0.3946	926.97	1.39642	1146.9
313.15 K, x2 = 0.4922	928.55	1.39542	1143
313.15 K, x2 = 0.5938	930.29	1.39437	1138.9
313.15 K, x2 = 0.6929	932.04	1.39332	1134.7
313.15 K, x2 = 0.7973	933.98	1.39222	1130.2
313.15 K, x2 = 0.895	935.84	1.39118	1126
